The test system of one test is PANC-1 cells. Put plainly: Transwell Matrigel migration of TGFβ-stimulated pancreatic cancer cells. In kind it is cell-based, human. Conditions: 24 h incubation. As to the method:
FIG. 12. H16B5 inhibits the migration of pancreatic cancer cell lines. PANC-1 cells were seeded in serum-free medium in the upper chamber of a 24-well Transwell plate containing a Matrigel barrier. The lower wells were filled with medium containing 10% FBS as a chemo-attractant. After a 24 h incubation in the presence or absence of TGFβ and/or h16B5 (as indicated), the number of cells in the Matrigel layer were stained and counted.
Tumors derived from 4 different human pancreatic cell lines were obtained which were fixed in formalin, embedded in paraffin, and section on glass slides. Immunohistochemistry was conducted with h16B5 antibody to determine if tumors derived from this cancer indication expressed clusterin. The tumors were derived from Aspc-1, BxPC-3, PANC-1, and MiaPaCa-2 all of which were derived from pancreatic cancer patients (ATCC, Manassas, Va.). Paraffin-embedded epithelial pancreatic tumor samples were placed on glass slides and fixed for 15 min at 50° C. Deparaffinization was conducted by treating 2× with xylene followed by dehydration in successive 5 min washes in 100%, 80%, and 70% ethanol. The slides were washed 2× in PBS for 5 min and treated with antigen retrieval solution (citrate-EDTA) to unmask the antigen. […] H16B5-reactive clusterin was detected by incubating with biotin-conjugated human anti-kappa followed by streptavidin-HRP tertiary antibody. […]

For test [1], the system named is BRI-JM01 mouse mammary carcinoma cells. Description: internalization of fluorescently labelled secreted clusterin. In kind it is cell-based. The settings on record: h16B5 10 μg/ml, labelled clusterin 250 ng/ml. As to the method:
FIG. 13. Secreted clusterin is internalized in cancer cells. Recombinant human clusteirn was expressed in 293-6E cells, purified, and labelled with Alexa Fluor 488 using a commercial labelling kit (Invitrogen). BRI-JM01 mouse mammary carcinoma cells were seeded on coverslips and treated with 250 ng/ml of labelled secreted clusterin. At the indicated times, the cells were washed with ice-cold PBS and fixed in 2% paraformaledyhyde. The slides were mounted with Antifade Gold and images were generated with a fluorescence microscope.
FIG. 14. H16B5 inhibits the internalization of secreted clusterin in cancer cells. The experiment was performed as described for FIG. 13. H16B5 was added at 10 μg/ml.
In order to begin to address this question, cell-based experiments were undertaken to determine if secreted clusterin interacted with cancer cells directly or via other secreted factors in the cell medium. In order to measure this, secreted clusterin was fluorescently labelled and incubated with BRI-JM01 mouse mammary carcinoma cells. […] As shown, the internalization increases over time in manner that is consistent with a receptor-mediated endocytic pathway. Furthermore, the punctate and perinuclear pattern of staining that results after 24 hours (see white arrows in FIG. 13) that is often observed in proteins that are internalized along the endosomal pathway. […]

Test [2] has as its target T1, human clusterin (recombinant monomeric clusterin) (Homo sapiens, UniProt P10909).
T1 construct: Recombinant monomeric clusterin was immobilized on a CM3 chip with normal amine coupling method
Description: BIAcore kinetic analysis of antibody binding to immobilized clusterin. As for the experimental part: The purpose of these investigations is to determine the kinetics parameters of anti-clusterin antibodies. In particular, to determine whether the humanization of the 16B5 and 21B12 anti-clusterin monoclonal antibody affects the kinetics parameters of its binding to human clusterin. To this end, a kinetic analysis method was developed using the BIAcore 3000. Human clusterin was immobilized on a sensor chip. Full length antibodies or Fab fragments were injected and allowed to interact with the immobilized clusterin. This example described the exemplary antibody 16B5 but the 21B12 exemplary antibody was prepared and tested in a similar manner.
HBST (10 mM Hepes pH 7.4, 135 mM NaCl, 3.4 mM EDTA, 0.005% Tween 20) was used as running buffer for all BIAcore experiments. Recombinant monomeric clusterin was immobilized on a CM3 chip with normal amine coupling method at a flow of 5 μl/min. Surface was activated with 35 μl of a mixture of 50 mM NHS/0.2M EDC. Clusterin in 10 mM Na-acetate pH 4.5 was injected until a desired amount was captured (below 60RU). Unreacted esters were deactivated with 35 μL1 of 1M ethanolamine hydrochloride-NaOH pH8.5. A control surface was prepared by injecting NHS/EDC and ethanolamine in the same manner.
Kinetics analysis was conducted at a flow of 50 μl/min. Full length antibodies (mouse or humanized) or Fab were diluted in HBST. Concentration range was from 1.953-31.25 nM for the full length antibodies and 15.625-250 nM for the Fab. Each concentration was injected over the clusterin and a control surface for 5 min followed with a 5 min dissociation wash. The clusterin surface was regenerated between each antibody injection with 50 μl of 20 mM HCl.
(In general: In SPR one partner is held on a chip, and binding of the other changes the refractive index at the surface.)

A further test deals with T2, murine clusterin (Mus musculus, UniProt Q06890).
T2 construct: murine clusterin that was expressed in BR1-JM01 cells; endogenous in cells; host or cells: BR1-JM01 mouse mammary carcinoma cells
Put plainly: immunohistochemistry on frozen sections of 4T1 mouse mammary tumors. The format is binding. Conditions: 5 μg/ml, 1 h. As for the experimental part:
FIG. 16. […] The experiment was performed using immunohistochemistry and detection was accomplished using a HRP-conjugated secondary antibody.
Briefly, the frozen sections were fixed with ice-cold acetone for 10 minutes and non-specific binding was blocked with a reagent supplied in a commercially available kit (Dako Canada, Inc., Burlington, ON). H16B5 was incubated with the mouse tumor section for 1 h at a concentration of 5 μg/ml. […] A control sample was processed in an identical manner with a human isotype control IgG.

A further test relates to DU145 cells. Put plainly: growth in Matrigel, DU145. In kind it is cell-based, human. The settings on record: 8 μg/mL, up to 3 weeks. As to the method: FIG. 5. Inhibition of h16B5 reduces the invasiveness of human prostate cancer cells. The bottom of 12-well plates was covered with 200 μL Growth factor reduced matrigel (Becton Dickinson). Cells (2.5×10^4) were resuspended in 200 μL matrigel, which was layered on top of this, and finally 500 μL of cell specific growth medium was added on top of the matrigel. h16B5 was added to every layer of matrigel as well as the medium in a concentration of 8 μg/mL. Plates were incubated at 37° C. for up to 3 weeks during which the growth medium (+/−h16B5) was replenished weekly. The arrows indicate the areas of epithelial-like cells.
We then determined whether other cell lines such as the human prostate PC3 and DU145 cell lines, which secrete various levels of endogenous clusterin, could be affected in their invasive behavior and growth by the h16B5.

T1 sequence (P10909 23-449): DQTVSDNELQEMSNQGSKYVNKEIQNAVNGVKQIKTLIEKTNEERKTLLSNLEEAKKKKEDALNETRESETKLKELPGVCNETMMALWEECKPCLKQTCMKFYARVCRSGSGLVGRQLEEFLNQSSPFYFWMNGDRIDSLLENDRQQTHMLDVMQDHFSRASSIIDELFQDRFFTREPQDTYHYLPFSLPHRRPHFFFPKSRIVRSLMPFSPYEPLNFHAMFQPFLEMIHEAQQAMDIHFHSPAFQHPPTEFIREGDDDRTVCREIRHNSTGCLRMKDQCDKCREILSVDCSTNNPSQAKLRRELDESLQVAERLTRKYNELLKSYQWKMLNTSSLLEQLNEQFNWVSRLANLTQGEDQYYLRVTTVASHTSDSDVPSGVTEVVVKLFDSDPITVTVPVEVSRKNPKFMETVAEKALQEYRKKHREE
T2 sequence (Q06890 22-448): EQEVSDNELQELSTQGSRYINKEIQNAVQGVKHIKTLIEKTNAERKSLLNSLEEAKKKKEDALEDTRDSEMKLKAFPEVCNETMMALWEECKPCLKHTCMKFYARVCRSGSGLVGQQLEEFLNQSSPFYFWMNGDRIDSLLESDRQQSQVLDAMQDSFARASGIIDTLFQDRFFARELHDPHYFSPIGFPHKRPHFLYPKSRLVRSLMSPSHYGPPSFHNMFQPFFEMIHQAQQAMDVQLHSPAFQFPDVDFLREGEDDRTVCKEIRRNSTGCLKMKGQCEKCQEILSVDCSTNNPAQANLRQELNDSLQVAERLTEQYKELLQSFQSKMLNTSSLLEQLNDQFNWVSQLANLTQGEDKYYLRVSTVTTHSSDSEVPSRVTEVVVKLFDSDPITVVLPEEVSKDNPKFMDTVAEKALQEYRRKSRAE

“h16B5: humanized anti-clusterin IgG2 antibody, heavy chain SEQ ID NO.:9 and light chain SEQ ID NO.:10”: the “migration of TGFβ-stimulated cells into the Matrigel” value in the test with PANC-1 cells is reported as “severely inhibited”. Moreover, the “internalization of secreted clusterin into JM01 cells” value in test [1] is given as “blocked”. Moreover, the “kinetics parameters compared with the parent mouse antibody” value in test [2] (full length vs full length, Fab vs Fab) is given as “very similar”. The “KD of the interaction with immobilized human clusterin” value in test [2] (stated in words) is reported as “low nM range”. Moreover, the “detection of murine clusterin in 4T1 tumors” value with murine clusterin is “detected murine clusterin”. Moreover, the “sphere-like structures in Matrigel” value in the test on DU145 cells is “smaller and fewer in number”.
